Assay: Odour threshold concentration by using an olfactometer
Settings: for Odour threshold concentration, geometric mean: olfactometer, forced-choice triangle presentation, group of 12 panelists, both compounds measured on the same day under identical conditions; for odour threshold concentration, times lower compared to 6-methoxy-2,6-dimethylheptanal (Methoxymelonal): ratio of the geometric mean thresholds vs the prior-art compound
Description: The odour threshold concentration is defined as the lowest concentration of the vapour of an odorous material in the air which can be detected by smell. The concentration can be measured by standard methods known in the art by using either olfactometry means or sniff-bottles allowing panelists to smell the presented headspace.
The olfactometer functions on the principle of a linear dilution of an odorant in a carrier gas. The quantity of odorant displaced depends on its vapour pressure and the carrier gas flow. A constant flow of nitrogen, regulated by a flow regulator, carries the odorant from a sample container to a mixing chamber. There, the carrier gas-odour mixture is diluted with odourless air. From the mixing chamber one part of the diluted odorous air is allowed to flow via a fused silica capillary to the sniffing funnel. The flow rate through the capillary, which determines the dosage of odorous air from the mixing chamber into the sniffing funnel, depends on the opening of the valve which can be regulated via PC from 1 to 256 ml in binary steps. The final dilution of the odorous air sample occurs in the glass funnel by flushing them permanently with odourless air at a flow rate of 8 L/min. Forced-choice triangle presentation is achieved by a special automated channel setting device where only in one position of a switch the odorant delivering capillary enters in the sniffing funnel, whereas in the two other positions the capillary is positioned outside the funnel and where the effluent is sucked away. After each trial the channel setting is changed automatically and in a random order. The concentration is calculated from the odorants vapour pressure and from the dilution ratios that were applied in the olfactometer, assuming that vapour saturation is achieved in the sample generator. As a control the concentration was by sampling a known volume from the capillary effluent into a headspace filter and then determined. The panelist starts sniffing at the olfactometer at a concentration level at which he perceives the odorant at medium intensity. After three correct answers in three consecutive trials (or four correct ones of five trials) at the same level, stimulus concentration is decreased by a factor of two to the next lower level, and so on, until the panelist has reached his threshold level.
Under identical conditions the odour threshold concentration for 6-methoxy-2,6-dimethyloctanal and 6-methoxy-2,6-dimethylheptanal was measured and compared by a group of 12 panelists. The sequence with which of the two compounds the panelist started smelling was alternated. Both compounds were measured on the same day and the following data were obtained: […]

Structure (SMILES) | Odour threshold concentration, geometric mean [ng/L] | odour threshold concentration, times lower compared to 6-methoxy-2,6-dimethylheptanal (Methoxymelonal) | odour threshold concentration, times lower compared to 6-methoxy-2,6-dimethylheptanal (Methoxymelonal) (listed as compound of the present invention) [times]
COC(C)(C)CCCC(C)C=O (stereo not shown) [6-methoxy-2,6-dimethylheptanal, reference compound] | 1.92 | – | –
CCC(C)(CCCC(C)C=O)OC (stereo not shown) [6-methoxy-2,6-dimethyloctanal] | 0.78 | about 2.5 times | 2.46
